Consider three molecules from patent publication US4125607A, “Daunosaminyl anthracyclinones and their use” (Societa' Farmaceutici Italia S.p.A., priority 1975, dated 1978).

In brackets after ≈: the same amount, converted by molar mass. Like-named read-outs stand apart in the source and are kept apart here.

Data set [1] concerns L1210 leukemia. The data set can be described thus: Activity on L1210 leukemia in BDF1 mice (Table 4). Type of data set: in vivo. The procedure: |Activity on L1210 leukemia |BDF1 mice were injected ip with 10^5 ascites |cells on Day 0 and treated ip on Day 1.
In data set [2] the test system is HeLa cells. The data set can be described thus: Inhibition of colony forming ability of cultured HeLa cells in vitro. Type of data set: cell-based. As to conditions: for IC50: Homo sapiens, read-out: ID50 (50% inhibiting dose). From the text: Biological activity on cultured HeLa cells. Data
are expressed as 50% inhibiting dose (ng/ml) at
different times of exposure.

In data set [3] the test system is Sarcoma 180 ascites. As to the kind of experiment: Antitumor activity in mice bearing Sarcoma 180 ascites, single ip treatment on day 1. Type of data set: in vivo. As to conditions: for LTS (long term survivors) / T/C % (survival time as percentage of controls) / TOX (toxic deaths): single ip on day 1. The source says:
Antitumor activity in mice bearing Sarcoma 180 ascites;
single intraperitoneal treatment on day 1. The results
are expressed as the time of survival of treated animals
as a percentage of the controls (T/C %), the number of
long term survivors (LTS) and toxic deaths (TOX).

Data set [4] deals with L 1210 leukemia. As to the kind of experiment: Activity on L 1210 leukemia in BDF1 mice (Table 3). Type of data set: in vivo. From the text:
^1 BDF1 mice received 10^5 ascites cells ip on Day 0 - Treatment

For data set [5], the system named is P 388 leukemia. As to the kind of experiment: Activity on P 388 leukemia in BDF1 mice (Table 3). Type of data set: in vivo. The source says:
^2 BDF1 mice received 10^6 ascites cells ip on Day 0 - Treatment

Data set [6] has as its system Gross leukemia. The data set can be described thus: Activity on Gross leukemia in C3H/Hc mice (Table 3). Type of data set: in vivo. The source says:
^3 C3H/Hc mice received 2×10^6 leukemic cells iv on Day 0 -
Treatment iv on Days 1, 2, 3.

With `Cc1cc2c(cc1C)C(=O)c1c(O)c3c(c(O)c1C2=O)CC(O)(C(=O)CO)CC3OC1CC(N)C(O)C(C)O1` (stereo not shown) [2,3-Dimethyl-4-demethoxy-adriamycin, 4-demethoxy-2,3-dimethyladriamycin], the T/C % in data set [1] (L1210, 1.9 mg/kg ip on Day 1) worked out at 152%; in data set [1] (L1210, 2.9 mg/kg ip on Day 1), 152%; in data set [1] (L1210, 4.4 mg/kg ip on Day 1), 170%. Further, the LTS in data set [1] (L1210, 4.4 mg/kg ip on Day 1) is listed as 1/10.
In the case of `CC1OC(OC2CC(O)(C(=O)CO)Cc3c(O)c4c(c(O)c32)C(=O)c2ccccc2C4=O)CC(N)C1O` (stereo not shown) [4-demethoxyadriamycin], the “Activity relative to adriamycin (inhibition of colony forming ability)” value in data set [2] (HeLa cells in vitro, from Table 1) is recorded as “about one hundred times more active than adriamycin”. Also, the IC50 in data set [2] (HeLa cells, 2 hrs. exposure) came out at 1.5 ng/mL (≈ 0.00292 µM); in data set [2] (HeLa cells, 8 hrs. exposure), 0.34 ng/mL (≈ 0.000662 µM); in data set [2] (HeLa cells, 24 hrs. exposure) it was 0.14 ng/mL (≈ 0.000273 µM). In addition, the “LTS (long term survivors)” value in data set [3] (0.25 mg/kg) is given as 7/10; in data set [3] (0.5 mg/kg), 6/10. For the same molecule, the “T/C % (survival time as percentage of controls)” value is “above 583%” in data set [3] (0.25 mg/kg), “above 583%” in data set [3] (0.5 mg/kg) and 218% in data set [3] (1.0 mg/kg). Moreover, the “TOX (toxic deaths)” value in data set [3] (1.0 mg/kg) is given as 6/9. Further, in data set [3] (Sarcoma 180 ascites, from Table 2), the “Activity relative to adriamycin” value is listed as “at least ten times more active than adriamycin”. The T/C % was determined as 155% in data set [4] (L 1210, 0.25 mg/kg ip on Day 1); 166% in data set [4] (L 1210, 0.5 mg/kg ip on Day 1); 133% in data set [4] (L 1210, 1 mg/kg ip on Day 1); 168% in data set [5] (P 388, 0.25 mg/kg ip on Day 1); 195% in data set [5] (P 388, 0.5 mg/kg ip on Day 1); 209% in data set [5] (P 388, 1 mg/kg ip on Day 1). Further, the T/C % is reported as 228% in data set [6] (0.35 mg/kg iv on Days 1, 2, 3); 214% in data set [6] (0.45 mg/kg iv on Days 1, 2, 3); 157% in data set [6] (0.6 mg/kg iv on Days 1, 2, 3). Moreover, the Tox in data set [4] (L 1210, 1 mg/kg ip on Day 1) was 10/10; in data set [5] (P 388, 1 mg/kg ip on Day 1) it was 2/10; in data set [6] (0.35 mg/kg iv on Days 1, 2, 3) it was 1/10; in data set [6] (0.45 mg/kg iv on Days 1, 2, 3), 1/10; in data set [6] (0.6 mg/kg iv on Days 1, 2, 3) it was 8/10.
With `COc1cccc2c1C(=O)c1c(O)c3c(c(O)c1C2=O)C[C@@](O)(C(=O)CO)C[C@@H]3O[C@H]1C[C@H](N)[C@H](O)[C@H](C)O1` [Adriamycin], the IC50 in data set [2] (HeLa, 2 h) is 125 ng/mL (≈ 0.23 µM); in data set [2] (HeLa, 8 h) it was 28 ng/mL (≈ 0.0515 µM); in data set [2] (HeLa, 24 h), 12.5 ng/mL (≈ 0.023 µM). The “LTS (long term survivors)” value in data set [3] (2.5 mg/kg) was 7/10; in data set [3] (5.0 mg/kg), 2/10. In addition, the “T/C % (survival time as percentage of controls)” value in data set [3] (2.5 mg/kg) was “above 583%”; in data set [3] (5.0 mg/kg), 211%; in data set [3] (10.0 mg/kg), 163%. The “TOX (toxic deaths)” value in data set [3] (5.0 mg/kg) was 3/9; in data set [3] (10.0 mg/kg), 4/10. Also, the T/C % stood at 155% in data set [4] (L 1210, 2.5 mg/kg ip on Day 1); 166% in data set [4] (L 1210, 5 mg/kg ip on Day 1); 155% in data set [4] (L1210, 10 mg/kg ip on Day 1); 173% in data set [5] (P 388, 2.5 mg/kg ip on Day 1); 218% in data set [5] (P 388, 5 mg/kg ip on Day 1); 230% in data set [5] (P 388, 10 mg/kg ip on Day 1). For the same molecule, the T/C % in data set [6] (3.5 mg/kg iv on Days 1, 2, 3) came to 164%; in data set [6] (4.4 mg/kg iv on Days 1, 2, 3), 186%; in data set [6] (6.0 mg/kg iv on Days 1, 2, 3), 214%; in data set [1] (L1210, 2.9 mg/kg ip on Day 1), 141%; in data set [1] (L1210, 4.4 mg/kg ip on Day 1), 152%; in data set [1] (L1210, 6.6 mg/kg ip on Day 1), 158%. In addition, in data set [1] (L1210, 10 mg/kg ip on Day 1), the T/C % is recorded as 164%. For the same molecule, the Tox was 1/10 in data set [4] (L 1210, 5 mg/kg ip on Day 1); 4/10 in data set [4] (L1210, 10 mg/kg ip on Day 1); 1/10 in data set [5] (P 388, 10 mg/kg ip on Day 1); 3/10 in data set [6] (6.0 mg/kg iv on Days 1, 2, 3). Moreover, the LTS is recorded as 1/10 in data set [1] (L1210, 4.4 mg/kg ip on Day 1) and 1/10 in data set [1] (L1210, 10 mg/kg ip on Day 1).
